Tests used:
Experiment in all cases: hyphae penetrating the artificial cell wall, fludioxonil in culture solution
Format in all cases: cell-based
Trichoderma asperellum = tested on: Trichoderma asperellum
Text: (§1) Biscogniauxia maritima, Penicillium olsonii, Phoma multirostrata, and Trichoderma asperellum, which are not tomato pathogens but were present on tomato leaves, were sampled from the tomato leaves, isolated, and then inoculated onto a potato dextrose agar medium. The tomato plants serving as the isolation sources were sampled at a plurality of sites. The isolation method was as follows: into a clean resin container or resin bag, several tomato leaves sampled were placed together with a fungus collection solution composed of physiological saline containing 0.1% surfactant Tween 80 (SIGMA-ALDRICH), and stirred for 1 minute to transfer the fungi adhering to the leaves to the fungus collection solution; this fungus collection solution was diluted, and applied to a potato dextrose agar medium containing 100 mg/L of streptomycin sulfate (Wako) by the spread plate culture technique; subsequently, the medium was incubated at 25° C. for several days and, from the produced fungus colonies, the isolation was performed. We requested Tama Laboratory, (general incorporated association) Japan Food Research Laboratories to perform identification. The above-described Biscogniauxia maritima, Penicillium olsonii, Phoma multirostrata, and Trichoderma asperellum isolated and then inoculated onto the potato dextrose agar medium were left static at a temperature of 25° C. for a week. Subsequently, to the potato dextrose agar medium on which the four species of fungi were cultured with sufficient hyphal growth or sufficient sporulation, several milliliters of sterile pure water was dropped; the surface of the hyphae was rubbed with, for example, a platinum loop or a brush, to obtain a disintegrated hypha-spore mixed suspension.
(§2) The above-described container having, at the bottom surface, the artificial cell wall including the polyethylene terephthalate film (substrate) having, on its back surface, the cellulose membrane was placed on a culture medium container (culture-solution storage), to provide a device for detecting a tomato pathogenic fungus. […]

Passalora fulva = settings: 25° C., 72 hours
Protocol: Passalora fulva, which is one of tomato pathogens and is a pathogenic fungus that causes tomato leaf mold, was inoculated onto a potato dextrose agar medium. Subsequently, the medium was left static at a temperature of 23° C. for one to two weeks. Passalora fulva was distributed by The Genetic Resources Center, The National Agriculture and Food Research Organization (MAFF No. 726744). Subsequently, to the potato dextrose agar medium having cultured Passalora fulva with sufficient hyphal growth, several milliliters of sterile pure water was dropped, and the surface of the hyphae was rubbed with, for example, a platinum loop or a brush, to obtain a disintegrated hypha-spore mixed suspension.
(§3) The above-described container having, at the bottom surface, the artificial cell wall including the polyethylene terephthalate film (substrate) having, on its back surface, the cellulose membrane was placed on a culture medium container (culture-solution storage), to provide a device for detecting a tomato pathogenic fungus. The culture medium container was a 24-well flat-bottom culture plate (Corning Incorporated, trade name: 24 Well Cell Culture Cluster Flat Bottom). Between the culture medium container and the artificial-cell-wall-formed container, 600 μL of a liquid culture medium (culture solution) was charged so as to be in contact with the back surface of the artificial-cell-wall-formed container. […]
(§4) Subsequently, sterile purified water was added such that the total volume with such a disintegrated hypha-spore mixed suspension became 200 μL. The tomato-pathogenic-fungus selection method device in which the seven species of fungi were added was left to stand at a temperature of 25° C. for 72 hours, and the number of hyphae penetrating the artificial cell wall and observed at the back surface was visually counted using an optical microscope. […]

Penicillium olsonii = settings: Comparative Example 1, fludioxonil 133 mg/L, 25° C., 72 hours
Text: as §1, §2

Biscogniauxia maritima = settings: Comparative Example 1, fludioxonil 133 mg/L, 25° C., 72 hours
Text: as §1, §2

Phoma multirostrata = settings: Comparative Example 1, fludioxonil 133 mg/L, 25° C., 72 hours
Text: as §1, §2

Botrytis cinerea = settings: 25° C., 72 hours
Protocol: Botrytis cinerea, which is one of tomato pathogens and is a pathogenic fungus that causes tomato gray mold, was inoculated onto a potato dextrose agar medium (Difco™ Potato Dextrose Agar). Subsequently, the medium was left static at a temperature of 25° C. for a week. The Botrytis cinerea was given by Associate Professor Shimizu, Faculty of Applied Biological Sciences, Gifu University. Subsequently, the potato dextrose agar medium having cultured Botrytis cinerea with sufficient hyphal growth was left under irradiation with black light for four days or longer, and subsequently left in a room-temperature environment for two weeks or longer, to promote sporulation. To the resultant potato dextrose agar medium having cultured Botrytis cinerea, several milliliters of sterile pure water was dropped, and the surface of the hyphae was rubbed with, for example, a platinum loop or a brush, to obtain a disintegrated hypha-spore mixed suspension.
as §3, with “Bottom).” for “Bottom). Between the culture medium container and the artificial-cell-wall-formed container, 600 μL of a liquid culture medium (culture solution) was charged so as to be in contact with the back surface of the artificial-cell-wall-formed container.”
as §4

[1] = tested on: Pseudocercospora fuligena; settings: 25° C., 72 hours
Protocol: Pseudocercospora fuligena, which is one of tomato pathogens and is a pathogenic fungus that causes tomato Cercospora leaf mold, was inoculated onto a potato dextrose agar medium. Subsequently, the medium was left static at a temperature of 28° C. for a week. Pseudocercospora fuligena was distributed by The Genetic Resources Center, The National Agriculture and Food Research Organization (MAFF No. 306728). Subsequently, hyphae of Pseudocercospora fuligena were transferred from the potato dextrose agar medium to a burdock root powder agar medium, further left static for one to two weeks at a temperature of 28° C.; after hyphae sufficiently grew again, the surface of the hyphae was subjected to a mechanical stress such as rubbing with, for example, a platinum loop or a brush; subsequently, the medium was left under irradiation with black light for four days or longer, subsequently left in a room-temperature environment for two weeks or longer, to promote sporulation again. To the resultant burdock root powder agar medium having cultured Pseudocercospora fuligena, several milliliters of sterile pure water was dropped, and the surface of the hyphae was rubbed with, for example, a platinum loop or a brush, to obtain a disintegrated hypha-spore mixed suspension.
as §2, §4

[2] = Comparative Example 1, fludioxonil 133 mg/L
[3] = Example 1, fludioxonil 0.5 mg/L
[4] = Example 2, fludioxonil 1.3 mg/L

N#Cc1c[nH]cc1-c1cccc2c1OC(F)(F)O2 [fludioxonil]
hyphae penetrating the artificial cell wall (Trichoderma asperellum; Comparative Example 1, fludioxonil 133 mg/L, 25° C., 72 hours): not observed
effect of excluding Trichoderma asperellum (number of hyphae penetrating the artificial cell walls) (Trichoderma asperellum; Comparative Example 2, fludioxonil 0.1 mg/L (1/1000 of the concentration that provides the agricultural chemical effect)): not observed
growth of Trichoderma asperellum (number of hyphae penetrating the artificial cell walls) (Trichoderma asperellum; Comparative Example 2, fludioxonil 0.5 mg/L (1/250 of the concentration that provides the agricultural chemical effect)): inhibited
hyphae penetrating the artificial cell wall (Passalora fulva; [2]): not observed
hyphae penetrating the artificial cell wall (Passalora fulva; [3]): had hyphae penetrating the artificial cell wall
hyphae penetrating the artificial cell wall (Passalora fulva; [4]): had hyphae penetrating the artificial cell wall
hyphae penetrating the artificial cell wall (Penicillium olsonii): not observed
hyphae penetrating the artificial cell wall (Biscogniauxia maritima): not observed
hyphae penetrating the artificial cell wall (Phoma multirostrata): not observed
hyphae penetrating the artificial cell wall (Botrytis cinerea; [2]): not observed
hyphae penetrating the artificial cell wall (Botrytis cinerea; [3]): had hyphae penetrating the artificial cell wall
hyphae penetrating the artificial cell wall (Botrytis cinerea; [4]): had hyphae penetrating the artificial cell wall
hyphae penetrating the artificial cell wall [1, 2]: not observed
hyphae penetrating the artificial cell wall [1, 3]: had hyphae penetrating the artificial cell wall
hyphae penetrating the artificial cell wall [1, 4]: had hyphae penetrating the artificial cell wall
